# According to US20240124451A1, “PHTHALAZINE DERIVATIVES USEFUL AS INHIBITORS OF NOD-LIKE RECEPTOR PROTEIN 3” (Merck Sharp & Dohme LLC, priority 2022, published 2024):
# Target: T1, NLRP3 inflammasome (Homo sapiens, UniProt Q96P20)
# T1 construct: host or cells: THP-1 human monocytic cells, PMA-treated, stimulated with gramicidin
# Assay: ASC-SPECK formation in THP-1 cells after gramicidin stimulation (NLRP3 inflammasome activation)
# Assay type: cell-based
# Details: PMA-treated human monocytic THP-1 cells, compound 1 h before 12.5 ug/ml gramicidin, 3 h, ASC SPECK imaging; read-out: EC50 (nM) for Examples that inhibit NLRP3 inflammasome activation
# Protocol: The ability of compounds to inhibit NLRP3 inflammasome activation was determined in vitro by monitoring formation of the ASC-SPECK in human monocytic THP-1 cells after stimulation. THP-1 cells (ATCC catalog #TIB-202) were maintained in complete growth media containing Roswell Park Memorial Institute RPMI (ATCC catalog #30-2001), 10% heat inactivated fetal bovine serum, 1× penicillin/streptomycin and 0.05 mM 2-mercaptoethanol. At the start of the assay, undifferentiated THP-1 cells were plated at a density of 20,000 cells per well in a 384-well plate (Poly-D-lysine coated Cell Carrier Ultra microplate, Perkin Elmer catalog #6057500) in complete growth media supplemented with 10 ng/ml phorbol 12-myristate 13-acetate (PMA; Sigma catalog #P8139), and then incubated overnight. The next day, media was replaced with assay media [RPMI (Gibco catalog #11875-093), 0.01% bovine serum albumin (BSA)]. Compounds were serially diluted in DMSO and then added to wells one hour prior to the addition of 12.5 ug/ml Gramicidin (Enzo Lifescience, catalog #ALX-350-233-M005). All incubations were carried out at 37° C. (5% CO2/95% air). Following a 3-hour treatment with gramicidin, cells are fixed with 4% paraformaldehyde and stored at 4° C. until immunofluorescence staining.
# Immunofluorescence staining: Anti-ASC antibody (MBL catalog #D086-3) was desalted and labeled with Alexa 488 antibody labeling kit (Thermo catalog #A20181) prior to use as described below. After fixation, the following steps were carried out at room temperature. Cells were first permeabilized with 0.3% Triton X-100 in phosphate-buffered saline (PBS) for 15 minutes and then incubated in blocking buffer containing 5% goat serum, 0.3% tween-20 and 0.03% sodium azide in PBS for 1 hour. Cells were stained with a mixture of ASC-Alexa 488 antibody (diluted 1:200 in blocking buffer) and nuclear stain DRAQ5 (1:5000 in blocking buffer, Thermo catalog #62251) in blocking buffer for 1 hour. Following a wash with 0.3% Tween-20 in PBS, plates were imaged with an Opera Phenix High Content Screening System. The number of DRAQ5 positive cells containing ASC SPECKS were quantified in each well.
# Data analysis: EC50 values were calculated by standard curve-fitting analysis using an internally developed program in TIBCO Spotfire software.
# T1 sequence (Q96P20 whole entry): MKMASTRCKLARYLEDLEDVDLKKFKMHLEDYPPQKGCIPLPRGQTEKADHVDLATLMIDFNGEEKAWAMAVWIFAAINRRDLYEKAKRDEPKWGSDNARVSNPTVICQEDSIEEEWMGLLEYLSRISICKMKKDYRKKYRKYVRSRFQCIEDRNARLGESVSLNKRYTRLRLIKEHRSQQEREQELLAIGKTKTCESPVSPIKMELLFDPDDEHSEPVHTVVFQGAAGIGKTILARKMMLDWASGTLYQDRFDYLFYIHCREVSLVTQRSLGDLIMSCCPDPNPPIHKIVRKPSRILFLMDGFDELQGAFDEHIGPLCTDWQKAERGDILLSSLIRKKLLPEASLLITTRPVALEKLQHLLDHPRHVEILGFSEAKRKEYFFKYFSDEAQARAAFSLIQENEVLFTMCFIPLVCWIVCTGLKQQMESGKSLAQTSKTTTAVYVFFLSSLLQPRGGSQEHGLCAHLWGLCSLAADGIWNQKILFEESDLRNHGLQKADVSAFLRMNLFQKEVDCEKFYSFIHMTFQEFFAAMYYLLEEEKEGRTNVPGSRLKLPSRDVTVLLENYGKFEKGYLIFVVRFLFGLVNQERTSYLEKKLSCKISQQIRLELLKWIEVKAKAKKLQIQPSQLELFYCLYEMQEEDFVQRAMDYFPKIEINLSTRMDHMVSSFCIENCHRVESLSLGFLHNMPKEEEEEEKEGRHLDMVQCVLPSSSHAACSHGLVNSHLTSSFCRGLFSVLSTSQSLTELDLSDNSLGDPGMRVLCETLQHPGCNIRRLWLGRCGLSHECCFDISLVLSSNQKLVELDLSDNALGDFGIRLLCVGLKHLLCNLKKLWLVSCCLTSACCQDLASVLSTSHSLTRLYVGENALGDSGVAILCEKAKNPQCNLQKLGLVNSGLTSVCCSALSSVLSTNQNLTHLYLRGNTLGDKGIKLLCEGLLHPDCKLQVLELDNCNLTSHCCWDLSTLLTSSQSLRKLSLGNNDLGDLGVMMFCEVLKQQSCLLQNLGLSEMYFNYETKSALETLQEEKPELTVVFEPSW
row,EC50,Structure (SMILES)
1,74 nM,"CC1CN(c2nnc(-c3ccc(C(F)(F)F)cc3O)c3cccnc23)CC(CO)O1 (single isomer, unassigned) [Example 52, 2-(8-((2S,6S or 2R,6R)-2-(hydroxy-methyl)-6-methyl-morpholino)pyrido[2,3-d]pyridazin-5-yl)-5-(trifluoro-methyl)phenol]"
2,482 nM,"Oc1cc(C(F)(F)F)ccc1-c1nnc(N2CC(O)C(F)(F)C2)c2ncccc12 (racemic) [Example 43, (R and S)-4,4-difluoro-1-(5-(2-hydroxy-4-(trifluoromethyl)phenyl)pyrido [2,3-d]pyridazin-8-yl)pyrrolidin-3-ol]"
